Test results: patent EP0626170A2, “Stabilisation of pharmacologically active compounds in sustained release compositions” (SANDOZ LTD., priority 1993, dated 1994)

Assay: Stability of compound A microspheres: degradation products by HPLC after manufacture, γ-irradiation and storage
Format: physicochemical
Details: for Increase of degradation product (%) after storage at 5°C / Increase of degradation product (%) after storage at 25°C: further increase (+) on storage; for degradation: during manufacture, sterilization and 1 month storage (5°C); for Increase of degradation product (%) after man. + γ-irrad. / Increase of degradation product (%) after manufacture: microspheres, pilot batches
Description: Microparticles were produced by a modified triple-emulsion technique. Compound A pamoate salt was dispersed in a small amount of water (14 mg pamoate salt in 0.1 ml) and the dispersion was intensively homogenized using an Ultra-Turrax T25 (Janke & Kunkel IKA-Werk) into a solution (10-25%) of DL-PLG-GLU in methylene chloride (emulsion process). Alternatively, compound A pamoate salt was directly dispersed into the solution of polymer in methylene chloride (suspension process). The resulting primary water/oil (W/O) emulsion or suspension (S/O) was then intensively mixed with the external phase (in a ratio of 1:40), a gelatin containing aqueous solution. After stirring for one hour in order to evaporate the methylene chloride, the generated microspheres were collected by filtration, washed with water and dried under high vacuum at room temperature for 1 - 3 days. Storage was effected at 5°C. Sterilization was effected by γ-irridation (25 kGy required) by using nitrogen as a protecting gas.
Compound A content and purity of the microparticles was determined by HPLC (RP-18 columns, acetonitril - tetramethyl ammonium hydroxide/water gradient) after extraction of the peptide from the microspheres using tetrahydrofuran acetate buffer, pH 4.2 (1:1).
The generation of degradation products of compound A during the manufacture process, γ-irradiation and subsequent strorage at various temperatures is represented in Table 2. Potential stability problems arose with the acetate and the phosphate salts of compound A: during manufacture, sterilization and 1 month storage (5°C) 5 - 10% degradation occurred. These problems could be circumvented by the use of the pamoate. After manufacture, sterilization and three months of storage even at 25°C there was an increase of degradation products of less than 1.5%, more particularly of less than 0.5% after manufacture, less than 1.0% from the beginning of manufacture to just after irradiation and , inclusive of storage for 3 months at 25°C less than 1.5%.

Compound | Increase of degradation product (%) after storage at 5°C (1 month) | Increase of degradation product (%) after storage at 25°C (1 month) | degradation | Increase of degradation product (%) after man. + γ-irrad. | Increase of degradation product (%) after manufacture | Increase of degradation product (%) after storage at 5°C (3 months) | Increase of degradation product (%) after storage at 25°C (3 months) | increase of degradation products (after manufacture) | increase of degradation products (after manufacture, sterilization and three months of storage at 25°C) | increase of degradation products (from the beginning of manufacture to just after irradiation)
CC(=O)N[C@H](Cc1ccc2ccccc2c1)C(=O)N[C@H](Cc1ccc(Cl)cc1)C(=O)N[C@H](Cc1c[nH]c2ccccc12)C(=O)N[C@@H](CO)C(=O)N[C@@H](Cc1ccc(O)cc1)C(=O)N[C@H](CCCCNCC(O)CO)C(=O)N[C@@H](CC(C)C)C(=O)N[C@@H](CCCCNCC(O)CO)C(=O)N1CCC[C@H]1C(=O)N[C@H](C)C(N)=O (single isomer, unassigned) [Compound A acetate] | + 0.6% | + 1.3% | 5 - 10% | 4.2 - 8.3% | 0.4 - 4.2% |  |  |  |  | 
CC(=O)N[C@H](Cc1ccc2ccccc2c1)C(=O)N[C@H](Cc1ccc(Cl)cc1)C(=O)N[C@H](Cc1c[nH]c2ccccc12)C(=O)N[C@@H](CO)C(=O)N[C@@H](Cc1ccc(O)cc1)C(=O)N[C@H](CCCCNCC(O)CO)C(=O)N[C@@H](CC(C)C)C(=O)N[C@@H](CCCCNCC(O)CO)C(=O)N1CCC[C@H]1C(=O)N[C@H](C)C(N)=O (single isomer, unassigned) [Compound A pamoate] |  |  |  | 0.4 - 0.8% | 0.1 - 0.4% | + 0.4% | + 0.6% | less than 0.5% | less than 1.5% | less than 1.0%
CC(=O)N[C@H](Cc1ccc2ccccc2c1)C(=O)N[C@H](Cc1ccc(Cl)cc1)C(=O)N[C@H](Cc1c[nH]c2ccccc12)C(=O)N[C@@H](CO)C(=O)N[C@@H](Cc1ccc(O)cc1)C(=O)N[C@H](CCCCNCC(O)CO)C(=O)N[C@@H](CC(C)C)C(=O)N[C@@H](CCCCNCC(O)CO)C(=O)N1CCC[C@H]1C(=O)N[C@H](C)C(N)=O (single isomer, unassigned) [Compound A phosphate] | + 0.7% | + 1.6% | 5 - 10% | 7.0 - 9.0% | 1.2 - 3.5% |  |  |  |  | 
